Assay results reported in patent US20250154686A1, “COMPOUND LIBRARY” (CHUGAI SEIYAKU KABUSHIKI KAISHA, priority 2021, published 2025).

Target: T1, Bcl-2 protein (Recombinant Human Bcl-2 Protein) (Homo sapiens, UniProt P10415)
T1 construct: purchased Novus Biologicals NBP2-34889
Assay: AS-MS evaluation of binding of the Example 4 mixture library (1200 compounds/well) to Bcl-2, ASMS ratio (%)
Outline: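 Affinity-selection MS: 1200 cpds/well, 20 nM each; hBcl-2 20 μM; 25 mM Tris pH 7.4/150 mM NaCl/0.025% Tween-20/1 mM DTT; 1 h, 23 °C, dark; P-2 size-exclusion spin, MeCN:MeOH 1:1 extraction; RP LC/MS; ratio vs no-protein STD and SEC blank.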

[1] = AS-MS, mixture of 1200 compounds/well, Bcl-2 protein, replicate n = 1
[2] = AS-MS, mixture of 1200 compounds/well, Bcl-2 protein, replicate n = 2
[3] = AS-MS, Example 4 mixture library, Bcl-2, replicate n = 1
[4] = AS-MS, Example 4 mixture library, Bcl-2, replicate n = 2
[5] = replicate n = 1, mixture library, value belongs to the MS peak assigned to the compound
[6] = replicate n = 2, mixture library, value belongs to the MS peak assigned to the compound

T1 sequence (P10415 whole entry): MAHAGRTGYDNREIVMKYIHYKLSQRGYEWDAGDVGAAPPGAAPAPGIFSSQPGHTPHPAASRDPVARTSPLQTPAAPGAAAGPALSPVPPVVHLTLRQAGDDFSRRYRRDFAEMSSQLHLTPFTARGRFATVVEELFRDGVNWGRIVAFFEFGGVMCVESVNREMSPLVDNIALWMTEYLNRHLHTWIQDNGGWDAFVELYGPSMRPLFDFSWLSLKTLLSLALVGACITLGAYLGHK

| Structure (SMILES) | ASMS ratio (%) n = 1 [3] [%] | ASMS ratio (%) n = 2 [4] [%] | ASMS ratio (%) n = 1 [5] [%] | ASMS ratio (%) n = 2 [6] [%] | also measured |
| --- | --- | --- | --- | --- | --- |
| CCCNC(=O)c1ccc(N2CCN(C(=O)c3cc(C#Cc4cncc(OCC)c4)cc(C(F)(F)F)c3)CC2)nn1 [Compound B1M020-01] |  |  |  |  | ASMS ratio (%) n = 1 [1]: 0.0%; ASMS ratio (%) n = 2 [2]: 0.0% |
| CCOc1cncc(-c2cc(C(=O)N3CCN(c4ccc(C(=O)NS(=O)(=O)c5ccc(NCCSc6ccccc6)c(C(F)(F)F)c5)cc4)CC3)cc(C(C)(C)C)c2)c1 [Compound B2R038-01, 4-[4-[3-tert-Butyl-5-(5-ethoxypyridin-3-yl)benzoyl]piperazin-1-yl]-N-[4-(2-phenylsulfanylethylamino)-3-(trifluoromethyl)phenyl]sulfonylbenzamide] | 7.1 | −6.0 |  |  |  |
| CCOc1cccc(-c2ccc(C(C)N3CCN(c4ccc(C(=O)NS(=O)(=O)CCC(F)(F)F)cc4)CC3)c(F)c2)c1 (stereo not shown) [Compound B2N099-01, 4-[4-[1-[4-(3-Ethoxyphenyl)-2-fluorophenyl]ethyl]piperazin-1-yl]-N-(3,3,3-trifluoropropylsulfonyl)benzamide] | 0.0 | 0.0 |  |  |  |
| CCOc1cccc(-c2cc(CN3CCN(c4ccc(C(=O)NCC(F)(F)F)cc4)CC3)cc(OC(F)(F)F)c2)c1 [Compound B1K063-01, 4-[4-[[3-(3-Ethoxyphenyl)-5-(trifluoromethoxy)phenyl]methyl]piperazin-1-yl]-N-(2,2,2-trifluoroethyl)benzamide] |  |  |  |  | ASMS ratio (%) n = 1 [1]: 3.9%; ASMS ratio (%) n = 2 [2]: 0.4% |
| CCCNC(=O)c1ccc(N2CCN(C(=O)c3cc(-c4cccc(OCC)c4)cs3)CC2)cc1 [Compound B1M023-01] |  |  |  |  | ASMS ratio (%) n = 1 [1]: 1.4%; ASMS ratio (%) n = 2 [2]: −3.0% |
| CCOc1cncc(C#Cc2cc(C(=O)N3CCN(c4ccc(C(=O)NS(C)(=O)=O)cc4)CC3)cc(C(F)(F)F)c2)c1 [Compound B2I042-01, 4-[4-[3-[2-(5-Ethoxypyridin-3-yl)ethynyl]-5-(trifluoromethyl)benzoyl]piperazin-1-yl]-N-methylsulfonylbenzamide] |  |  | 0.0 | 0.0 |  |
| CCOc1cncc(-c2ccc(CN3CCN(c4ccc(C(=O)NS(=O)(=O)C(C)(C)C)cc4)CC3)cc2C)c1 [Compound B2L048-01, N-tert-Butylsulfonyl-4-[4-[[4-(5-ethoxypyridin-3-yl)-3-methylphenyl]methyl]piperazin-1-yl]benzamide] |  |  | 3.9 | −5.0 |  |
| CCOc1cncc(-c2cnn(-c3cc(C(=O)N4CCN(c5ccc(C(=O)NS(=O)(=O)CCC(F)(F)F)nn5)CC4)cc(C(F)(F)F)c3)c2)c1 [Compound B2N022-01, 6-[4-[3-[4-(5-Ethoxypyridin-3-yl)pyrazol-1-yl]-5-(trifluoromethyl)benzoyl]piperazin-1-yl]-N-(3,3,3-trifluoropropylsulfonyl)pyridazine-3-carboxamide] | 0.0 | 0.0 |  |  |  |
| CCOc1cccc(-c2ccc(C(C)N3CCN(c4ccc(C(=O)NS(=O)(=O)c5ccc(NCCSc6ccccc6)c(C(F)(F)F)c5)cc4)CC3)cc2)c1 (stereo not shown) [Compound B2R097-01, 4-[4-[1-[4-(3-Ethoxyphenyl)phenyl]ethyl]piperazin-1-yl]-N-[4-(2-phenylsulfanylethylamino)-3-(trifluoromethyl)phenyl]sulfonylbenzamide] | 6.6 | −7.8 |  |  |  |
| CCOc1cncc(-c2ccc(C(=O)N3CCN(c4ccc(C(=O)NS(=O)(=O)c5ccc(NCCSc6ccccc6)c(C(F)(F)F)c5)cc4)CC3)cc2F)c1 [Compound B2R028-01, 4-[4-[4-(5-Ethoxypyridin-3-yl)-3-fluorobenzoyl]piperazin-1-yl]-N-[4-(2-phenylsulfanylethylamino)-3-(trifluoromethyl)phenyl]sulfonylbenzamide] | 4.1 | −0.5 |  |  |  |
| CCOc1cncc(-c2ccc(CN3CCN(c4ccc(C(=O)NS(=O)(=O)CCC(F)(F)F)cc4)CC3)c3ccccc23)c1 [Compound B2N066-01, 4-[4-[[4-(5-Ethoxypyridin-3-yl)naphthalen-1-yl]methyl]piperazin-1-yl]-N-(3,3,3-trifluoropropylsulfonyl)benzamide] | 0.0 | 0.0 |  |  |  |
| CCOc1cncc(-c2cnn(-c3cc(C(=O)N4CCN(c5ccc(C(=O)NS(C)(=O)=O)cc5)CC4)cc(C(F)(F)F)c3)c2)c1 [Compound B2I044-01, 4-[4-[3-[4-(5-Ethoxypyridin-3-yl)pyrazol-1-yl]-5-(trifluoromethyl)benzoyl]piperazin-1-yl]-N-methylsulfonylbenzamide] |  |  | 0.0 | 0.0 |  |
| CCOc1cncc(-c2ccc(CN3CCN(c4ccc(C(=O)NS(=O)(=O)c5ccc(NCCSc6ccccc6)c(C(F)(F)F)c5)nn4)CC3)c(CC)c2)c1 [Compound B2R076-01] | 3.9 | 19.7 |  |  |  |
| CCOc1cncc(-c2ccc(CN3CCN(c4ccc(C(=O)NS(=O)(=O)c5ccc(NCCSc6ccccc6)c(C(F)(F)F)c5)nn4)CC3)cc2C)c1 [Compound B2R074-01, 6-[4-[[4-(5-ethoxypyridin-3-yl)-3-methylphenyl]methyl]piperazin-1-yl]-N-[4-(2-phenylsulfanylethylamino)-3-(trifluoromethyl)phenyl]sulfonylpyridazine-3-carboxamide] | 22.4 | 25. |  |  |  |
| CCOc1cccc(-c2ccc(C(C)N3CCN(c4ccc(C(=O)NS(=O)(=O)c5ccc(NCCSc6ccccc6)c(C(F)(F)F)c5)cc4)CC3)c(F)c2)c1 (stereo not shown) [Compound B2R099-01, 4-[4-[1-[4-(3-Ethoxyphenyl)-2-fluorophenyl]ethyl]piperazin-1-yl]-N-[4-(2-phenylsulfanylethylamino)-3-(trifluoromethyl)phenyl]sulfonylbenzamide] | −12.6 | −7.5 |  |  |  |
| CCOc1cccc(-c2cc(CN3CCN(c4ccc(C(=O)NS(C)(=O)=O)nn4)CC3)cc(OCC)c2)c1 [Compound B2I081-01, 6-[4-[[3-Ethoxy-5-(3-ethoxyphenyl)phenyl]methyl]piperazin-1-yl]-N-methylsulfonylpyridazine-3-carboxamide] |  |  | 0.0 | 0.0 |  |
| CCOc1cncc(-c2cc(CN3CCN(c4ccc(C(=O)NS(=O)(=O)CCC(F)(F)F)cc4)CC3)cc(OC(F)(F)F)c2)c1 [Compound B2N064-01, 4-[4-[[3-(5-Ethoxypyridin-3-yl)-5-(trifluoromethoxy)phenyl]methyl]piperazin-1-yl]-N-(3,3,3-trifluoropropylsulfonyl)benzamide] | 0.0 | 0.0 |  |  |  |
| CCOc1cccc(-c2cc(CN3CCN(c4ccc(C(=O)NS(=O)(=O)C(C)(C)C)cc4)CC3)cc(OCC)c2)c1 [Compound B2L055-01, N-tert-Butylsulfonyl-4-[4-[[3-ethoxy-5-(3-ethoxyphenyl)phenyl]methyl]piperazin-1-yl]benzamide] |  |  | 0.0 | 0.0 |  |
| CCOc1cccc(-c2ccc(C(=O)N3CCN(c4ccc(C(=O)NS(=O)(=O)c5ccc(NCCSc6ccccc6)c(C(F)(F)F)c5)cc4)CC3)cc2C)c1 [Compound B2R025-01, 4-[4-[4-(3-Ethoxyphenyl)-3-methylbenzoyl]piperazin-1-yl]-N-[4-(2-phenylsulfanylethylamino)-3-(trifluoromethyl)phenyl]sulfonylbenzamide] | −1.0 | −2.4 |  |  |  |
| CCOc1cccc(-c2ccccc2CN2CCN(c3ccc(C(=O)NS(=O)(=O)c4ccc(NCCSc5ccccc5)c(C(F)(F)F)c4)nn3)CC2)c1 [Compound B2R071-01] | 14.3 | −9.0 |  |  |  |
| CCOc1cncc(-c2ccc(CN3CCN(c4ccc(C(=O)NS(=O)(=O)CCC(F)(F)F)nn4)CC3)cc2F)c1 [Compound B2N078-01, 6-[4-[[4-(5-Ethoxypyridin-3-yl)-3-fluorophenyl]methyl]piperazin-1-yl]-N-(3,3,3-trifluoropropylsulfonyl)pyridazine-3-carboxamide] | 0.0 | 0.0 |  |  |  |
| CCOc1cncc(-c2cc(OC)c(CN3CCN(c4ccc(C(=O)NS(=O)(=O)c5ccc(NCCSc6ccccc6)c(C(F)(F)F)c5)nn4)CC3)c(OC)c2)c1 [Compound B2R086-01, 6-[4-[[4-(5-Ethoxypyridin-3-yl)-2,6-dimethoxyphenyl]methyl]piperazin-1-yl]-N-[4-(2-phenylsulfanylethylamino)-3-(trifluoromethyl)phenyl]sulfonylpyridazine-3-carboxamide] | 0.0 | 0.0 |  |  |  |
| CCOc1cccc(-c2cc(CN3CCN(c4ccc(C(=O)NS(=O)(=O)CC56CC7CC(CC(C7)C5)C6)nn4)CC3)cc(OC(F)(F)F)c2)c1 [Compound B2A089-01] |  |  | 10.5 | 0.5 |  |
| CCOc1cncc(-c2ccc(CN3CCN(c4ccc(C(=O)NS(C)(=O)=O)cc4)CC3)c(OC)c2)c1 [Compound B2I054-01, 4-[4-[[4-(5-Ethoxypyridin-3-yl)-2-methoxyphenyl]methyl]piperazin-1-yl]-N-methylsulfonylbenzamide] |  |  | 0.0 | 0.0 |  |
| CCOc1cccc(-c2cc(CN3CCN(c4ccc(C(=O)NS(C)(=O)=O)cc4)CC3)cc(OCC)c2)c1 [Compound B2I055-01, 4-[4-[[3-Ethoxy-5-(3-ethoxyphenyl)phenyl]methyl]piperazin-1-yl]-N-methylsulfonylbenzamide] |  |  | 0.0 | 0.0 |  |
| CCOc1cncc(-c2ccc(C(=O)N3CCN(c4ccc(C(=O)NS(=O)(=O)C(C)(C)C)nn4)CC3)cc2F)c1 [Compound B2L006-01] |  |  | 0.0 | 0.0 |  |
